# Reference: patent US20030153051A1, “Cholesterol oxidase” (priority 1998, published 2003)
# Entries after “also recorded” stand apart in the source; their conditions may differ.
# Columns and labels:
# [1] = tested on: cholesterol oxidase derived from Nocardia erythropolis; assay: Effect of organic solvents on enzyme activity (Nocardia erythropolis); assay type: biochemical; details: organic solvent 50% by volume of reaction solution; pH 7, 30° C.; no solvent = 1
# [2] = tested on: cholesterol oxidase derived from Pseudomonas sp.; assay: Effect of organic solvents on enzyme activity (Pseudomonas sp.); assay type: biochemical; details: organic solvent 50% by volume of reaction solution; pH 7, 30° C.; no solvent = 1
# [3] = tested on: cholesterol oxidase derived from Streptomyces sp.; assay: Effect of organic solvents on enzyme activity (Streptomyces sp.); assay type: biochemical; details: organic solvent 50% by volume of reaction solution; pH 7, 30° C.; no solvent = 1
# [4] = tested on: cholesterol oxidase derived from ST-200 strain; assay: Effect of organic solvents on enzyme activity (ST-200); assay type: biochemical, Pseudomonas sp. ST-200; details: for Relative activity, ST-200: organic solvent 50% by volume of reaction solution, pH 7, 30° C., no solvent = 1; for Reaction velocity in solvent compared to cholesterol oxidases of Nocardia erythropolis, Pseudomonas sp., Streptomyces sp., Brevibacterium sp. (in words): organic solvent 50% by volume, 30° C., pH 7
# [5] = tested on: cholesterol oxidase derived from Brevibacterium sp.; assay: Effect of organic solvents on enzyme activity (Brevibacterium sp.); assay type: biochemical; details: organic solvent 50% by volume of reaction solution; pH 7, 30° C.; no solvent = 1
# [6] = tested on: cholesterol oxidase derived from ST-200 strain; assay: Effect of metal ions and the like on enzyme activity; assay type: biochemical, Pseudomonas sp. ST-200; details: for Relative activity (%): pH 7; for Inhibition of enzyme activity (in words): 1 mM
# [7] = tested on: cholesterol oxidase derived from Pseudomonas sp. ST-200 (FERM BP-6661); assay: Effect of metal ions and the like (additives) on enzyme activity; assay type: biochemical; details: additive at 1 mM; activity without additive = 100; cholesterol substrate, 30° C., pH 7
# Procedure: Effect of metal ions and the like on the activity of the enzyme obtained in Example 1 was studied. Enzyme activity was measured as described in Test Example 1 at 30° C. at pH 7 after adding various metal compounds, to a final concentration of […], to the reaction system.
# [8] = tested on: cholesterol oxidase derived from ST-200 strain; assay: Substrate specificity of enzyme; assay type: biochemical, Pseudomonas sp. ST-200; details: for Relative activity (%): various substrates, 30° C., pH 7, enzyme activity with cholesterol set to be 100
# [9] = tested on: cholesterol oxidase derived from Nocardia erythropolis; assay: Enzyme kinetics (Km, Vmax) of cholesterol oxidation, Lineweaver-Burk; assay type: biochemical; details: 30° C., pH 7
# Procedure: (§1) Enzyme activity was measured as described in Test Example 1 at 30° C. at pH 7.
# [10] = tested on: cholesterol oxidase derived from Streptomyces sp.; assay: as above; assay type: biochemical; details: 30° C., pH 7
# Procedure: as §1
# [11] = tested on: cholesterol oxidase derived from Pseudomonas sp. ST-200 (FERM BP-6661); assay: as above; assay type: biochemical; details: 30° C., pH 7, 0 to 1 mM cholesterol
# Procedure: as §1
# [12] = tested on: cholesterol oxidase derived from Brevibacterium sp.; assay: as above; assay type: biochemical; details: 30° C., pH 7
# Procedure: as §1
# [13] = tested on: cholesterol oxidase derived from Pseudomonas sp. (comparison); assay: as above; assay type: biochemical; details: 30° C., pH 7
# Procedure: as §1
# [14] = additive 1 mM, 30° C., cholesterol as substrate, activity without additive set to be 100
# [15] = 0.03% Triton X-100, 0 to 1 mM cholesterol
# [16] = head 0.03% Triton X-100 (0.3% in text)
compound,measurement,setting,value
CCCc1ccccc1 [Propylbenzene],"Relative activity, Nocardia erythropolis",[1],1.6
same,"Relative activity, Pseudomonas sp.",[2],1.3
same,"Relative activity, Streptomyces sp.",[3],1.1
same,Effect of organic solvent on reaction velocity (in words),[4],increased
same,"Relative activity, ST-200",[4],3.2
same,"Reaction velocity in solvent compared to cholesterol oxidases of Nocardia erythropolis, Pseudomonas sp., Streptomyces sp., Brevibacterium sp. (in words)",[4],higher reaction velocity
same,"Relative activity, Brevibacterium sp.",[5],0.8
Iron sulfate,Relative activity (%),[6]; [14],94%
c1ccccc1 [Benzene],"Relative activity, Nocardia erythropolis",[1],1.5
same,"Relative activity, Pseudomonas sp.",[2],1.3
same,"Relative activity, Streptomyces sp.",[3],0.9
same,Effect of organic solvent on reaction velocity (in words),[4],increased
same,"Relative activity, ST-200",[4],3.0
same,"Reaction velocity in solvent compared to cholesterol oxidases of Nocardia erythropolis, Pseudomonas sp., Streptomyces sp., Brevibacterium sp. (in words)",[4],higher reaction velocity
same,"Relative activity, Brevibacterium sp.",[5],0.5
[Cl][Ni][Cl] [Nickel chloride],Relative activity (%),[6],90%
[Cl][Hg][Cl] [Mercury chloride],Relative activity (%),[6]; [14],0%
same,Inhibition of enzyme activity (in words),[6]; cholesterol as substrate,inhibited; also recorded: strongly inhibited
"c1ccc(-c2ccccn2)nc1 [α,α-dipyridyl]",Relative activity,[7],98%
"CC[C@H](CC[C@@H](C)[C@H]1CC[C@H]2[C@@H]3CC=C4C[C@@H](O)CC[C@]4(C)[C@H]3CC[C@]12C)C(C)C [β-sitosterol, sitost-5-en-3β-ol]",Action of the enzyme on the substrate (in words),[8],strongly oxidized
same,Relative activity (%),[8],84%
c1cnc2c(c1)ccc1cccnc12 [o-phenanthroline],Relative activity,[7],92%
"c1ccc(-c2ccccn2)nc1 [α,α-dipyridyl, reference compound]",Relative activity (%),[6],98%
"CC(C)[C@@H](C)C=C[C@@H](C)[C@H]1CC[C@H]2C3=CC=C4C[C@@H](O)CC[C@]4(C)[C@H]3CC[C@]12C [Ergosterol, Ergosta-5,7,22-trien-3β-ol]",Relative activity (%),[8],20%
"Oc1cccc2cccnc12 [8-hydroxyquinoline, reference compound]",Relative activity (%),[6],85%
"CC(C)CCC[C@@H](C)[C@H]1CC[C@H]2[C@@H]3CC=C4C[C@H](O)CC[C@]4(C)[C@H]3CC[C@]12C [Epicholesterol, Cholest-5-en-3α-ol]",Action of the enzyme on the substrate (in words),[8],does not act on; also recorded: did not act on
same,Relative activity (%),[8],0%
[Cl-].[Cl-].[Mg+2] [Magnesium chloride],Relative activity (%),[6],102%
[Cl-].[Cl-].[Zn+2] [Zinc chloride],Relative activity (%),[6],92%
ClC(Cl)Cl [Chloroform],"Relative activity, Nocardia erythropolis",[1],0.3
same,"Relative activity, Pseudomonas sp.",[2],0.1
same,"Relative activity, Streptomyces sp.",[3],0.1
same,"Relative activity, ST-200",[4],0.2
same,"Relative activity, Brevibacterium sp.",[5],<0.1
Manganese chloride,Relative activity (%),[6]; [14],92%
C1CCCCCCC1 [Cyclooctane],"Relative activity, Nocardia erythropolis",[1],1.1
same,"Relative activity, Pseudomonas sp.",[2],0.8
same,"Relative activity, Streptomyces sp.",[3],0.4
same,Effect of organic solvent on reaction velocity (in words),[4],increased
same,"Relative activity, ST-200",[4],1.4
same,"Reaction velocity in solvent compared to cholesterol oxidases of Nocardia erythropolis, Pseudomonas sp., Streptomyces sp., Brevibacterium sp. (in words)",[4],higher reaction velocity
same,"Relative activity, Brevibacterium sp.",[5],0.2
O=C(O)CN(CCN(CC(=O)O)CC(=O)O)CC(=O)O [EDTA],Relative activity,[7],88%
c1ccc(Cc2ccccc2)cc1 [Diphenylmethane],"Relative activity, Nocardia erythropolis",[1],1.6
same,"Relative activity, Pseudomonas sp.",[2],1.5
same,"Relative activity, Streptomyces sp.",[3],1.0
same,Effect of organic solvent on reaction velocity (in words),[4],increased
same,"Relative activity, ST-200",[4],3.1
same,"Reaction velocity in solvent compared to cholesterol oxidases of Nocardia erythropolis, Pseudomonas sp., Streptomyces sp., Brevibacterium sp. (in words)",[4],higher reaction velocity
same,"Relative activity, Brevibacterium sp.",[5],0.8
"CC(C)CCC[C@@H](C)[C@H]1CC[C@H]2[C@@H]3CC=C4C[C@@H](O)CC[C@]4(C)[C@H]3CC[C@]12C [Cholesterol, cholest-5-en-3β-ol]",Km,[9]; [15],5.14 µM
same,Vmax,[9]; [15],9.8 µmol/min/mg
same,Km,[9]; [16],44 µM
same,Vmax,[9]; [16],6.8 µmol/min/mg
same,Km,[10]; [15],16.3 µM
same,Vmax,[10]; [15],15.8 µmol/min/mg
same,Km,[10]; [16],160 µM
same,Vmax,[10]; [16],15.3 µmol/min/mg
same,Km,[11]; 0.03% Triton X-100,4.04 µM
same,Vmax,[11]; 0.03% Triton X-100,13.1 µmol/min/mg
same,Km,[11]; [16],52.2 µM
same,Vmax,[11]; [16],12.1 µmol/min/mg
same,Km,[12]; [15],63.3 µM
same,Vmax,[12]; [15],12.0 µmol/min/mg
same,Km,[12]; [16],925 µM
same,Vmax,[12]; [16],11.3 µmol/min/mg
same,Km,[13]; [15],9.41 µM
same,Vmax,[13]; [15],11.0 µmol/min/mg
same,Km,[13]; [16],76.1 µM
same,Vmax,[13]; [16],10.3 µmol/min/mg
same,Action of the enzyme on the substrate (in words),[8],strongly oxidized
same,Relative activity (%),[8],100%
Cc1ccccc1 [Toluene],"Relative activity, Nocardia erythropolis",[1],1.7
same,"Relative activity, Pseudomonas sp.",[2],1.4
same,"Relative activity, Streptomyces sp.",[3],1.2
same,Effect of organic solvent on reaction velocity (in words),[4],increased
same,"Relative activity, ST-200",[4],3.5
same,"Reaction velocity in solvent compared to cholesterol oxidases of Nocardia erythropolis, Pseudomonas sp., Streptomyces sp., Brevibacterium sp. (in words)",[4],higher reaction velocity
same,"Relative activity, Brevibacterium sp.",[5],0.5
O=[N+]([O-])[O-].[Ag+] [Silver nitrate],Relative activity (%),[6]; [14],2%
same,Inhibition of enzyme activity (in words),[6]; cholesterol as substrate,inhibited; also recorded: strongly inhibited
"C[C@]12CC[C@H](O)C[C@@H]1CC[C@@H]1[C@@H]2CC[C@]2(C)C(=O)CC[C@@H]12 [Epiandrosterone, 5α-androstan-3β-ol-17-one]",Relative activity (%),[8],10%
[Ca+2].[Cl-].[Cl-] [Calcium chloride],Relative activity (%),[6],106%
"CC(=O)[C@H]1CC[C@H]2[C@@H]3CC=C4C[C@@H](O)CC[C@]4(C)[C@H]3CC[C@]12C [Pregnenolone, 3β-Hydroxypregn-5-en-20-one]",Relative activity (%),[8],32%
O=S(=O)([O-])[O-].[Cu+2] [Copper sulfate],Relative activity (%),[6]; [14],105%
"C[C@]12CC[C@H](O)CC1=CC[C@@H]1[C@@H]2CC[C@]2(C)C(=O)CC[C@@H]12 [Dehyoepiandrosterone, 3β-Hydroxyandrost-5-en-17-one]",Relative activity (%),[8],16%
Cc1ccc(C)cc1 [Paraxylene],"Relative activity, Nocardia erythropolis",[1],1.6
same,"Relative activity, Pseudomonas sp.",[2],1.5
same,"Relative activity, Streptomyces sp.",[3],1.1
same,Effect of organic solvent on reaction velocity (in words),[4],increased
same,"Relative activity, ST-200",[4],3.4
same,"Reaction velocity in solvent compared to cholesterol oxidases of Nocardia erythropolis, Pseudomonas sp., Streptomyces sp., Brevibacterium sp. (in words)",[4],higher reaction velocity
same,"Relative activity, Brevibacterium sp.",[5],0.7
CC(C)CCC[C@@H](C)[C@H]1CC[C@H]2[C@@H]3CC[C@H]4C[C@@H](O)CC[C@]4(C)[C@H]3CC[C@]12C [β-cholestanol],Action of the enzyme on the substrate (in words),[8],strongly oxidized
same,Relative activity (%),[8],69%
